Some test systems named below: SF-295 CNS; PC-3 prostate; HCT-15 colon; SN12C renal; 786-0 renal; CAKI-1 renal; HOP-92 NSCLC; BT-549 breast; MDA-N.
Common to all, as to assay: NCI tumour cell line growth inhibition, 48 h

SMILES strings stand for the structures.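 Values below derive from 48-hour exposures of cells grown in 96-well plates, with endpoints linearly interpolated between the two concentrations bracketing the appropriate inhibition level. Abbreviation: GI50, concentration required for 50% inhibition of growth. At the TGI there is no net growth.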 Where only a bound is given, the exact number is not on record here.

Consider `COc1cccc(/C=N/NC(=O)CSCC(=O)N/N=C/c2cccc(OC)c2OC)c1OC`, for which the TGI in the assay on SF-295 CNS, with PC-3 prostate, in the assay on HCT-15 colon, with SN12C renal, in the assay on 786-0 renal and with CAKI-1 renal was over 100 µM in each case. The TGI with HOP-92 NSCLC was over 100 µM.
Turning to `COc1ccc(/C(C)=N/NC(=O)c2ccncc2)c(OC)c1`, the TGI in the assay on BT-549 breast, with MDA-N, with HCT-15 colon, in the assay with SN12C renal, in the assay with 786-0 renal and in the assay on CAKI-1 renal was over 10 µM in each case. The TGI in the assay on HOP-92 NSCLC was over 10 µM.
In the case of `C=CC(O)(CBr)CCC(Br)C(=C)C` (stereo not given), the TGI with SF-295 CNS, in the assay on BT-549 breast, in the assay with MDA-N, in the assay on PC-3 prostate, in the assay on HCT-15 colon and in the assay with SN12C renal was over 10 µM throughout. Moreover, the TGI in the assay on 786-0 renal and in the assay on CAKI-1 renal was over 10 µM each time.
Consider `NS(=O)(=O)c1nnc(NC(=O)C23CC4CC(CC(C4)C2)C3)s1`, for which the TGI in the assay on SF-295 CNS, in the assay on BT-549 breast, with MDA-N, in the assay with HCT-15 colon, in the assay with SN12C renal and with 786-0 renal was over 100 µM in each case. Besides, the TGI in the assay with CAKI-1 renal and in the assay with HOP-92 NSCLC was over 100 µM throughout.
On to `CCCCn1c(CSc2ccc(Cl)cc2)c(C(=O)OCC)c2cc(OC)c(Br)cc21`, for which the TGI in the assay with SF-295 CNS, with BT-549 breast, in the assay with MDA-N, in the assay on PC-3 prostate, with HCT-15 colon and with SN12C renal was over 100 µM each time. Besides, the TGI is over 100 µM in the assay on 786-0 renal and 75.9 µM in the assay on CAKI-1 renal.
For `CC(=O)c1[nH]c(NC(C)C)c(C(=S)Nc2ccccc2)c1N`, the TGI in the assay on SF-295 CNS is over 100 µM; in the assay on BT-549 breast, 86.4 µM; in the assay with MDA-N, 61.3 µM; in the assay with HCT-15 colon, over 100 µM; in the assay with SN12C renal it was 75.1 µM; with 786-0 renal it was 61.8 µM. Also, the TGI was over 100 µM in the assay with CAKI-1 renal and 92.4 µM in the assay on HOP-92 NSCLC.
In the case of `COC(=O)c1c(C(=O)OC)c2ccccn2c1-c1cc(OC)c(Br)c(=O)o1`, the TGI in the assay on SF-295 CNS, in the assay with MDA-N, in the assay on PC-3 prostate, with HCT-15 colon, in the assay with SN12C renal and in the assay with 786-0 renal was over 100 µM throughout.
With `CC1CN=C(NS(=O)(=O)c2cc(C(=O)Nc3ccc(Cl)cc3)c(Cl)cc2S)NN1` (stereo not given), the TGI with SF-295 CNS was over 100 µM; in the assay on BT-549 breast, over 100 µM; in the assay on MDA-N it was over 100 µM; in the assay on PC-3 prostate, 94 µM; in the assay with HCT-15 colon, over 100 µM; in the assay on SN12C renal, over 100 µM. For the same compound, the TGI in the assay with 786-0 renal and with CAKI-1 renal was over 100 µM throughout.
As to `Nc1ccc2[nH]c(-c3cccc(C(F)(F)F)c3)cc(=O)c2c1`, the TGI in the assay on BT-549 breast was over 100 µM; with PC-3 prostate it was 97.7 µM; in the assay on HCT-15 colon it was over 100 µM; with SN12C renal, over 100 µM; with 786-0 renal, over 100 µM; in the assay on CAKI-1 renal it was over 100 µM. Moreover, in the assay on HOP-92 NSCLC, the TGI is over 100 µM.
Regarding `C1CSCCSCCCSC2CCCCC2SC1` (stereo not given), the TGI in the assay on SF-295 CNS, in the assay on BT-549 breast, with MDA-N, in the assay on PC-3 prostate, with HCT-15 colon and with SN12C renal was over 100 µM in each case. In addition, the TGI in the assay with 786-0 renal and with HOP-92 NSCLC was over 100 µM in each case.
For the compound `Clc1cccc(-c2sc(-c3ccsc3)cc2Cc2ccsc2)c1`, the TGI in the assay on SF-295 CNS, in the assay on MDA-N, with PC-3 prostate, in the assay on HCT-15 colon, in the assay on SN12C renal and in the assay on 786-0 renal was over 10 µM each time. Besides, the TGI in the assay on CAKI-1 renal and in the assay with HOP-92 NSCLC was over 10 µM throughout.
In the case of `S=C1NC2=C(COc3ccccc32)C(c2ccc(Cl)cc2)N1` (stereo not given), the TGI with SF-295 CNS was determined as 29 µM; in the assay with BT-549 breast, 41.5 µM; with MDA-N, 29.9 µM; with PC-3 prostate, 26.2 µM; in the assay with SN12C renal, 8.64 µM; with 786-0 renal it was 34.5 µM.
In the case of `COc1ccc2c3c(Nc4cccc(/C(C)=N\O)c4)[nH]c4ccccc4c-3c(N=O)c2c1`, the GI50 in the assay on SF-295 CNS was over 100 µM; in the assay on BT-549 breast, 47 µM; in the assay with PC-3 prostate, 20.5 µM; with HCT-15 colon, 18 µM; in the assay with SN12C renal, 30 µM; in the assay with CAKI-1 renal, 29.3 µM. In addition, the TGI in the assay with SF-295 CNS is over 100 µM; in the assay on BT-549 breast it was over 100 µM; in the assay on PC-3 prostate, 65.4 µM; with HCT-15 colon, 39.6 µM; with SN12C renal, over 100 µM; in the assay with CAKI-1 renal, 54.8 µM.
With `S=C(NCCc1ccccn1)N/N=C/c1ccccn1`, the TGI was over 100 µM in the assay on SF-295 CNS; over 100 µM in the assay on MDA-N; over 100 µM in the assay with PC-3 prostate; over 100 µM with HCT-15 colon; 13.3 µM with SN12C renal; over 89.7 µM in the assay with 786-0 renal. Also, the TGI in the assay on CAKI-1 renal was under 0.01 µM.
As for `CC1(C)[C@@H]2CC[C@]1(C)[C@H](OC(=O)/C=C/c1ccccc1)C2`, the TGI in the assay on SF-295 CNS amounted to 36.3 µM; with BT-549 breast it was 48 µM; in the assay with MDA-N it was 92.6 µM; in the assay with PC-3 prostate it was 56.4 µM; with HCT-15 colon, 33.4 µM; in the assay on SN12C renal, 34.3 µM. The TGI in the assay on 786-0 renal came out at 32.3 µM; in the assay on CAKI-1 renal it was 38 µM.
Turning to `COc1cc(OC)cc(-c2ccc(-c3ccc(C(=N)N)cn3)o2)c1`, the GI50 in the assay with SF-295 CNS was 1.86 µM; in the assay on PC-3 prostate it was 1.65 µM; in the assay with HOP-92 NSCLC, 1.42 µM. For the same compound, the TGI came to 3.46 µM in the assay on SF-295 CNS, 3.14 µM in the assay with PC-3 prostate and 2.87 µM with HOP-92 NSCLC.
For the compound `COC1CCON1C(=O)c1ccccc1` (stereo not given), the TGI with SF-295 CNS, with BT-549 breast, with MDA-N, with PC-3 prostate, with HCT-15 colon and in the assay on SN12C renal was over 10 µM in each case. For the same compound, the TGI in the assay with 786-0 renal and in the assay with CAKI-1 renal was over 10 µM throughout.

(Values after PubChem BioAssay (NCI).)
